Laboratory results: patent publication US20240294467A1, “USP9X Inhibitors” (ProDeg, LLC, priority 2021, published 2024)

Target: USP4 (Homo sapiens (Human), UniProt Q13107)
Assay: DUB selectivity panel using ubiquitin-AMC
Assay type: biochemical
Conditions: 5 μM compound, 500 nM Ubiquitin-AMC
From the text: Compounds were screened for DUB inhibitory and apoptotic activity against other deubiquitylases in a DUB selectivity panel using ubiquitin-AMC (BPS Bioscience Inc.).

Sequence of USP4 (Q13107 whole entry): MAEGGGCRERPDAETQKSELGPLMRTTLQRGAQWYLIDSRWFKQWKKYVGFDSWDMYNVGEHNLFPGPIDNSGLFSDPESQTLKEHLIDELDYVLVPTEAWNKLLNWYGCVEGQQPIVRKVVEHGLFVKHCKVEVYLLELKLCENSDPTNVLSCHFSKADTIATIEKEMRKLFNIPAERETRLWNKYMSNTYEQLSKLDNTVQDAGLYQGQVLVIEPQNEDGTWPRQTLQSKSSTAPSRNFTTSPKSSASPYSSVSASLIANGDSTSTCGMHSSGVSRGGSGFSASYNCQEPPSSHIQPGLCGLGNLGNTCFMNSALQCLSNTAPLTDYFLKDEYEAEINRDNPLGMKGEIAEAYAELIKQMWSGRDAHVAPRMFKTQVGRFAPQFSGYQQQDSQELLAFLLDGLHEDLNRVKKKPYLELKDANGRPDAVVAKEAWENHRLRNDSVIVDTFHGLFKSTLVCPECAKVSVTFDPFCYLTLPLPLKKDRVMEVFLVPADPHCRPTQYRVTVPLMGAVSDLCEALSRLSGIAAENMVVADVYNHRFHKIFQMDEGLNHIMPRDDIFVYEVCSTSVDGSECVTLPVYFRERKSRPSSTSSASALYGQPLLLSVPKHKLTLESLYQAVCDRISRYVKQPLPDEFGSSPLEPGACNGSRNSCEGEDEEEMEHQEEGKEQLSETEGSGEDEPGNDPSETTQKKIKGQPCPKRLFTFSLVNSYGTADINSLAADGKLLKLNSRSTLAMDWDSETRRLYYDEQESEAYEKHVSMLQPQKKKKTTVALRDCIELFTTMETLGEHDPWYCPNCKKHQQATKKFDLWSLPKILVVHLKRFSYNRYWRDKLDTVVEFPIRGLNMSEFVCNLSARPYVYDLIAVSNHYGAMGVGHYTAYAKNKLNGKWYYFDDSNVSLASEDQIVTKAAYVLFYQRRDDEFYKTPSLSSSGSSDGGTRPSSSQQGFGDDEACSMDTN

In the case of `CN1CCOc2ccc(cc2)C(=O)NCc2cccc(c2)C(=O)N[C@@H](CC(C)(C)C)C(=O)Nc2ccc(cc2)CCN(C)C(=O)CC(C)(C)CC1=O` [Compound 5A], the inhibition at 5 µM was 0% and the “inhibition of USP4” value was “no detectable effect”.
